Measurements reported in patent US7531355B2, “Methods and compositions for smooth muscle reconstruction” (The Regents of the University of California, priority 2005, dated 2009).

Assays:
undifferentiated PLA = assay: Smooth muscle contraction in vitro assay (collagen gel), control cells; type: cell-based
Protocol: (§1) A mixture of 50% collagen solution (Vitrogen), 25% 4×DMEM with supplemented sodium bicarbonate prepared from powder (Gibco), ˜5 μl volume of glass bead (120-150 μm soda lime microspheres in light blue color) were added to approximately 5×10^5 cells (smooth muscle cells differentiated from ADSCs, although other cell types were utilized as negative controls) to a total volume of 400 μl was prepared on ice. The slurry was transferred to a 24-well plate (with calculated resulting thickness of around 2 mm) and the gel was allowed to polymerize in the 37° C. incubator overnight. Appropriate cell culture medium was added the next day to supplement cell growth, e,.g., smooth muscle medium was added to smooth muscle cells or adipogenic medium was added to adipose cells. The gel was incubated again for another night.
(§2) The following day (2 days after casting the gel) the gel was partially released (i.e., about 280° around the circumference of the well) from the tissue culture well by gently pulling the gel away from the side of the well with a pipette. Carbachol (an acetylcholine agonist) was added to the partially released gel. Response to addition of the drug was monitored by use of a microscope connected to a real-time camera.
(§3) Murine NIH 3T3 (fibroblasts ) or undifferentiated PLA cells were run concurrently as controls.
(§4) Pictures were taken before the gel was released at marked fields. […]

fibroblasts (NIH 3T3) = assay: as above; type: cell-based, Murine; conditions: control cells NIH 3T3
Protocol: as §1, §2, §3, §4

[1] = test system: smooth muscle cells differentiated from ADSCs; assay: Smooth muscle contraction in vitro assay (collagen gel); type: cell-based
Protocol: as §1, §2
Pictures were taken before the gel was released at marked fields. The gel was released with a pipette tip about 280° around the wall of the well. […]

With `C[N+](C)(C)CCOC(N)=O` [Carbachol] the “contractile response of gel to the agent” value (undifferentiated PLA) was “very weak response” and the “contractile response of gel to the agent” value (fibroblasts (NIH 3T3)) was “very weak response”.
`CNC[C@H](O)c1cccc(O)c1` [Phenylephrine] was tested, and the “contractile response of gel to the agent” value ([1]; agent added to partially released gel) was “shown to contract gels”.
For `CC(C)NCC(O)COc1cccc2ccccc12` (stereo not drawn) [Propranolol], the “effect on contractile response to isoproterenol” value ([1]; added beforehand) was “reduced the contractile response”.
With `CC(C)NCC(O)c1ccc(O)c(O)c1` (stereo not drawn) [isoproterenol] the “contractile response of gel to the agent” value (undifferentiated PLA) was “no response” and the “contractile response of gel to the agent” value (fibroblasts (NIH 3T3)) was “no response”.
